Consider one molecule from patent US20240238250A1, “METHOD OF USING PIROMELATINE FOR TREATING PARASOMNIAS ASSOCIATED WITH LOSS OF REM SLEEP ATONIA” (NEURIM PHARMACEUTICALS (1991) LTD., priority 2023, published 2024).

Entries after “also recorded” stand apart in the source; their conditions may differ.

Assay [1] has as its system patients with primary insomnia. In words: NREM sleep EEG spectral power after 4-week treatment, 3-arm parallel group study versus placebo. It counts as in vivo, human. The settings on record: 4-wks treatment, 20 and 50 mg; compared to baseline and to placebo. Here is the method: NREM sleep EEG power was calculated to evaluate the effects of chronic (4-week) administration of 20 mg and 50 mg piromelatine compared to those of placebo in patients with primary insomnia. Sleep EEG was recorded in 9 different centers in the frame of a 3-arm parallel group study with a random allocation of patients to one of the three treatment group (i.e., of the 121 patients who had exploitable sleep EEG data, 42 received placebo, 39 received piromelatine 20 mg, and 40 received piromelatine 50 mg).
Spectral power was calculated for all-night) and NREM sleep for the total EEG spectrum [0.5; 32] Hz and in the following frequency bands: delta [0.5; 4] Hz, theta [4; 8] Hz, alpha [8; 13] Hz, sigma [11.5; 15.5] Hz, beta [15.5; 32] Hz, beta1 [15.5; 20.5] Hz, beta2 [20.5; 25.5] Hz, and beta3 [25.5; 32] Hz.

Assay [2] concerns patients with primary insomnia. The assay can be described thus: REM sleep EEG spectral power after 4-week treatment, 3-arm parallel group study versus placebo. It counts as in vivo, human. The settings on record: for REM EEG spectral power, Alpha power ([8; 13] Hz) / REM EEG spectral power, Beta1 power ([15.5; 20.5] Hz) / REM EEG spectral power, Beta2 power ([20.5; 25.5] Hz) / REM EEG spectral power, Beta3 power ([25.5; 32] Hz) / REM EEG spectral power, Beta power ([15.5; 32] Hz) / REM EEG spectral power, Delta power ([0.5; 4] Hz) / REM EEG spectral power, Sigma power ([11.5; 15.5] Hz) / REM EEG spectral power, Theta power ([4; 8] Hz) / REM EEG spectral power, Total EEG power ([0.5; 32] Hz): 4 wks, whole night sleep. The protocol:
REM sleep EEG power was calculated to evaluate the effects of chronic (4-week) administration of 20 mg and 50 mg piromelatine compared to those of placebo in patients with primary insomnia. Sleep EEG was recorded in 9 different centers in the frame of a 3-arm parallel group study with a random allocation of patients to one of the three treatment group (i.e., of the 121 patients who had exploitable sleep EEG data, 42 received placebo, 39 received piromelatine 20 mg, and 40 received piromelatine 50 mg).
Spectral power was calculated for all-night) and REM sleep for the total EEG spectrum [0.5; 32] Hz and in the following frequency bands: delta [0.5; 4] Hz, theta [4; 8] Hz, alpha [8; 13] Hz, sigma [11.5; 15.5] Hz, beta [15.5; 32] Hz, beta1 [15.5; 20.5] Hz, beta2 [20.5; 25.5] Hz, and beta3 [25.5; 32] Hz.
Note, REM sleep is longest during the third part of the night.

For the molecule `COc1ccc2[nH]cc(CCNC(=O)c3cc(=O)cco3)c2c1` [Piromelatine, N-(2-(5-methoxy-1H-indol-3-yl)ethyl)-4-oxo-4H-pyran-2-carboxamide], the “effect on NREM low frequency band (0.5-1.5 Hz) (in words)” value in assay [1] was “can increase the NREM low frequency band”. In assay [2] (4-wks treatment, 20 and 50 mg, compared to baseline and to placebo, in particular during the longest REM period in the third part of the night sleep), the “effect on REM sleep alpha power band (in words)” value was “increases the spectral power in the a band during REM sleep; also recorded: enhances the REM sleep alpha power band”. Moreover, the “effect on other frequencies during REM sleep (in words)” value in assay [2] (patients with insomnia aged 20-80 years) is “minor or no changes in other frequencies”. Further, in assay [2] (piromelatine 20 mg, n = 39), the “REM EEG spectral power, Alpha power ([8; 13] Hz)” value is 103.36 % of baseline values; the “REM EEG spectral power, Beta1 power ([15.5; 20.5] Hz)” value is on record as 100.36 % of baseline values; the “REM EEG spectral power, Beta2 power ([20.5; 25.5] Hz)” value is 98.51 % of baseline values; the “REM EEG spectral power, Beta3 power ([25.5; 32] Hz)” value is 97.56 % of baseline values. In addition, in assay [2] (piromelatine 20 mg, n = 39), the “REM EEG spectral power, Beta power ([15.5; 32] Hz)” value is 98.95 % of baseline values; the “REM EEG spectral power, Delta power ([0.5; 4] Hz)” value is 100.29 % of baseline values; the “REM EEG spectral power, Sigma power ([11.5; 15.5] Hz)” value is on record as 100.34 % of baseline values; the “REM EEG spectral power, Theta power ([4; 8] Hz)” value is 101.45 % of baseline values. Further, the “REM EEG spectral power, Total EEG power ([0.5; 32] Hz)” value in assay [2] (piromelatine 20 mg, n = 39) is 99.76 % of baseline values. In assay [2] (piromelatine 50 mg, n = 40), the “REM EEG spectral power, Beta1 power ([15.5; 20.5] Hz)” value is 98.19 % of baseline values; the “REM EEG spectral power, Beta2 power ([20.5; 25.5] Hz)” value is on record as 99.93 % of baseline values; the “REM EEG spectral power, Beta3 power ([25.5; 32] Hz)” value is reported as 97.73 % of baseline values; the “REM EEG spectral power, Beta power ([15.5; 32] Hz)” value is 99.55 % of baseline values. Further, in assay [2] (piromelatine 50 mg, n = 40), the “REM EEG spectral power, Delta power ([0.5; 4] Hz)” value is given as 103.73 % of baseline values; the “REM EEG spectral power, Sigma power ([11.5; 15.5] Hz)” value is given as 103.14 % of baseline values; the “REM EEG spectral power, Theta power ([4; 8] Hz)” value was 105.03 % of baseline values; the “REM EEG spectral power, Total EEG power ([0.5; 32] Hz)” value was 105.33 % of baseline values. Further, the “REM EEG spectral power, Alpha power ([8; 13] Hz)” value in assay [2] (piromelatine 50 mg, n = 40, * significant difference (P < 0.05) compared to placebo) is given as 106.55* % of baseline values.
